“And” between values parts separate entries of the source, which are not always exact repeats. Equal values may be shown once. Where a name gives a salt, the structure may show the parent alone.
Tests used:
[1] = test system: various subtypes of muscarinic receptor; details: cited from earlier work
[2] = test system: monomers of the M2 receptor; details: cited from earlier work
[3] = molecular target: T1, human M2 receptor (Homo sapiens, UniProt P08172); format: binding
[4] = molecular target: M2 receptor extracted from porcine atria (Sus scrofa, UniProt P06199); format: binding
Sequence of M2 receptor extracted from porcine atria (P06199 whole entry): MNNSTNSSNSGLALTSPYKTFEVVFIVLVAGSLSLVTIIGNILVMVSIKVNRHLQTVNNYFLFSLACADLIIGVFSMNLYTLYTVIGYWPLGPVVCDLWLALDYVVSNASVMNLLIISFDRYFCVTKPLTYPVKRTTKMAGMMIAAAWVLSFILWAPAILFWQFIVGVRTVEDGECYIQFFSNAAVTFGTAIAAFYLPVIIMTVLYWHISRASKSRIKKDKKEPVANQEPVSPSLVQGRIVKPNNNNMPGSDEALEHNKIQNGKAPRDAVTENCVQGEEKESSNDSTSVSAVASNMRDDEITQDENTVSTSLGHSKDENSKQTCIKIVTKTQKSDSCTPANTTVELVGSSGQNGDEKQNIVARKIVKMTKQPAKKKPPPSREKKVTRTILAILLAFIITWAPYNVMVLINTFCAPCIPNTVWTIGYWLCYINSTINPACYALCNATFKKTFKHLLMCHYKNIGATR

[5] = molecular target: T2, M2 receptor (Sus scrofa, UniProt P06199); format: binding
T2 sequence (P06199 whole entry): as above

[6] = molecular target: T1, human M2 receptor; format: binding; remark: listed apart in the source
[7] = molecular target: M2 receptor from porcine atria (Sus scrofa, UniProt P06199); assay: biochemical; format: binding
Sequence of M2 receptor from porcine atria (P06199 whole entry): as above

[8] = molecular target: M2 receptor in sarcolemmal membranes (Sus scrofa, UniProt P06199); assay: biochemical; format: binding, porcine
Sequence of M2 receptor in sarcolemmal membranes (P06199 whole entry): as above

[9] = test system: muscarinic acetylcholine M2 receptors; details: cited from earlier work
[10] = molecular target: T2, M2 receptor; details: cited from earlier work

T1 sequence (P08172 whole entry): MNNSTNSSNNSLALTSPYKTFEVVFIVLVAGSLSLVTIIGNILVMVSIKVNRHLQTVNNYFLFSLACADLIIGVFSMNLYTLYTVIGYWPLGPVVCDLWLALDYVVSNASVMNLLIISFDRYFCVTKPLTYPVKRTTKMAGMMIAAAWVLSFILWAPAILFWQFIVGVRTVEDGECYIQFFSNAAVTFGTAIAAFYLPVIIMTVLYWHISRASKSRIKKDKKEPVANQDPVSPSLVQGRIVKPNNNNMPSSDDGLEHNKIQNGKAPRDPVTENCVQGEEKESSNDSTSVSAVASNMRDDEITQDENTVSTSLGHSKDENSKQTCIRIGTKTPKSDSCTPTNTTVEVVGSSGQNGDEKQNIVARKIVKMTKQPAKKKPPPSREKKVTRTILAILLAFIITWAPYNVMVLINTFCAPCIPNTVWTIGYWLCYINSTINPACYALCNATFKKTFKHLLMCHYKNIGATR

**Q.** With `Clc1cccc(Cl)c1CO/N=C/c1cc[n+](CCC[n+]2ccc(/C=N/OCc3c(Cl)cccc3Cl)cc2)cc1` [Duo-3] as the molecule, how does the Hill coefficient [1] read?
**A.** greater than 1

**Q.** With `COc1ccc2c(c1)c1c3c(c4c5ccccc5n(C)c4c1n2CC(O)CN(C)C)C(=O)NC3=O` (stereo not shown) [Go7874] as the molecule, how does the Hill coefficient [1] read?
**A.** greater than 1

**Q.** Which Hill coefficient [1] does the source give for `COC(=O)[C@@]1(OC)C[C@H]2O[C@]1(C)n1c3ccccc3c3c4c(c5c6ccccc6n2c5c31)C(=O)N(C)C4` [KT5823] here?
**A.** greater than 1

**Q.** Which “rate constant of dissociation” value [2] does the source give for `C[N+]1(C)[C@@H]2C[C@@H](OC(=O)[C@H](CO)c3ccccc3)C[C@H]1[C@@H]1O[C@@H]12` [N-[^3H]methylscopolamine, N-[^3H]Methylscopolamine] here?
**A.** 0.036 ± 0.001

**Q.** What about the “observed rate constant for dissociation kobsd, range of values” [3] of the same molecule?
**A.** 0.054 to 0.059 min⁻¹

**Q.** What about the “rate constant of net dissociation k (mean)” value [3] of the same molecule?
**A.** 0.053 ± 0.002

**Q.** And the “observed rate constant for dissociation kobsd, range of values” [4]?
**A.** 0.179 to 0.247 min⁻¹

**Q.** With `CN1[C@@H]2CC[C@H]1C[C@@H](OC(=O)C(CO)c1ccccc1)C2` (stereo partly shown) [atropine, Atropine sulfate] as the molecule, how does the “Hill coefficient for inhibition of N-[3H]methylscopolamine” value [5] read?
**A.** indistinguishable from 1

**Q.** Which results are given for `CC[N+](CC)(CC)CCOc1cccc(OCC[N+](CC)(CC)CC)c1OCC[N+](CC)(CC)CC` [gallamine, gallamine triethiodide]?
**A.** nH(1) [6]: 2.41; EC50 [7]: ~71000 nM; log K [2]: −4.12; cooperativity factor (1/α), Scheme 2 [8]: about 70; EC50 ([8]; log K1): 53.7 nM and 282 nM; cooperativity factor [9]: 46

**Q.** With `Nc1c2c(nc3ccccc13)CCCC2` [tacrine] as the molecule, how does the Hill coefficient [1] read?
**A.** greater than 1

**Q.** What about the Hill coefficient [10] of the same molecule?
**A.** exceed 1
